Target: T1, L1 transport system (large neutral amino acid carrier, L1-system carrier) (Rattus norvegicus, UniProt Q63016)
T1 construct: functionality of their endogenous transporters such as the L1-system carrier; endogenous in cells; host or cells: rat primary cerebrovascular (brain microcapillary) endothelial cells, RBEC
Assay: Competitive binding assay to the brain L1 transport system (L-[U-14C]phenylalanine on rat primary cerebrovascular endothelial cells)
Conditions: for Status of Binding: compounds of Example 4, 10^−6, 10^−5 and 10^−4, Δ versus phenylalanine
Protocol: Compound samples in PBS (without Ca^+2, Mg^+2)-glucose 30 mM-HEPES 10 mM—DMSO 1% as prepared in Example 1 were thawed and left for at least 30 minutes at 20-23° C. before preparation of the following sub-dilutions for the competitive binding assay: • 200 μL of the stock solution were added to 800 μL PBS (without Ca^+2, Mg^+2)-Glucose-HEPES-1% DMSO (PBSD-1) [diluted 1:5 for a final 1:5 dilution] • 100 μL (1/5 dilution above) were added to 900 μL PBSD-1 [diluted 1:10 for a final 1:50 dilution] • 100 μL (1/50 dilution above) were added to 900 μL PBSD-1 [diluted 1:10 for a final 1:500 dilution]
These sub-dilutions were used immediately or stored overnight at 4° C. before the competitive binding assay. A volume of 45 μL of each of the compound dilutions (1:5, 1:50, 1:500) in PBSD-1 was added to the appropriate wells in the dilution plate.
Brains from sixty 24-day-old rats were dissected individually on a sterile lint moistened with ice cold Hanks' balanced salt solution (Gibco BRL, Grand Island, N.Y.) containing 10 mM HEPES (medium 1) supplemented with 0.1% BSA. Cerebellum, striatum, optic nerves, and brain stem (white matter) were removed. After a mid-sagittal section of the brain, the meninges and leptomeningeal debris were removed by rolling a sterile dry cotton swab on the cortices. (Ichikawa N, Naora K, Hirano H, Hashimoto M, Masumura S, and Iwamoto K (1996). Isolation and primary culture of rat cerebral microvascular endothelial cells for studying drug transport in vitro. J Pharmacol Toxicol Meth 36: 45-52.). Clean cortices were minced in pieces of ≈2 mm^3 in 15 mL of ice-cold medium 1-0.1% BSA. The preparation was divided into 4 sterile pre-weighed tubes and centrifuged at 330× g at 20-25° C. for 5 min. Tubes were weighed and pre-warmed (37° C.) and medium 1 with 0.5% BSA containing 0.3% collagenase and 10 μg/mL DNAse 1 (Roche, Laval, Quebec, Canada) were added to each tube (1 mL/g of tissue).
The brain-collagenase mixture was vigorously agitated in a water bath at 37° C. for 90 min. Fifteen min before the end of the digestion, the tissue was homogenized using a 10-mL pipette until a creamy mixture was obtained (≈20 aspirations). Cells were washed by adding medium 1 with 0.1% BSA to the homogenate (26 mL/tube) and centrifuged at 100× g at 20-25° C. for 7 min. This washing step was repeated 3 more times, once for 5 min and twice for 3 min. Each pellet was re-suspended in 25 mL of a 15% dextran solution prepared in medium 1 with 0.1% BSA and centrifuged at 3200× g at 4° C. for 25 min to isolate vessels from neural tissue and dextran layers. Vascular pellets were re-suspended in 5 mL Ca^++—Mg^++-free-medium 1 with 0.1% BSA (medium 2) at 20-25° C. and transferred in a 50-mL tube. Remaining vessels were collected by rinsing the tubes and pooling the rinsing suspension. (Rupnick M A, Carey A, and Williams S K (1988). Phenotypic diversity in cultured cerebral microvascular endothelial cells in vitro. Cell Develop Biol 24: 435-444.)
The vascular preparation was filtered and rinsed (20 mL of medium 2) through a sterile 355-μm mesh. The 355-μm filtrate was sequentially filtered twice (20 mL of medium 2) through sterile 112-μm meshes and rinsed (Stanimirovic D B, Wong J, Ball R, and Durkin J P (1995). Free radical-induced endothelial membrane dysfunction at the site of the blood-brain barrier: relationship between lipid peroxidation, Na,K-ATPase activity, and ^51Cr release. Neurochem Res 20:1417-1427.) and the latter filtrate was filtered and rinsed through a sterile 20-μm mesh. A final step of filtration and rinse was repeated through a double layer of 20-μm meshes. All 20-μm meshes, which retained the microcapillaries, were then transferred into a 50-mL tube containing 20 mL of a 0.1% collagenase/dispase (Roche) solution in medium 2 supplemented with 10 μg/mL DNAse 1 and 0.147 μg/mL tosyl-lysine-chloromethyl-ketone (Sigma Chemical Co., Oakville, Ontario, Canada) (medium 3).

T1 sequence (Q63016 whole entry): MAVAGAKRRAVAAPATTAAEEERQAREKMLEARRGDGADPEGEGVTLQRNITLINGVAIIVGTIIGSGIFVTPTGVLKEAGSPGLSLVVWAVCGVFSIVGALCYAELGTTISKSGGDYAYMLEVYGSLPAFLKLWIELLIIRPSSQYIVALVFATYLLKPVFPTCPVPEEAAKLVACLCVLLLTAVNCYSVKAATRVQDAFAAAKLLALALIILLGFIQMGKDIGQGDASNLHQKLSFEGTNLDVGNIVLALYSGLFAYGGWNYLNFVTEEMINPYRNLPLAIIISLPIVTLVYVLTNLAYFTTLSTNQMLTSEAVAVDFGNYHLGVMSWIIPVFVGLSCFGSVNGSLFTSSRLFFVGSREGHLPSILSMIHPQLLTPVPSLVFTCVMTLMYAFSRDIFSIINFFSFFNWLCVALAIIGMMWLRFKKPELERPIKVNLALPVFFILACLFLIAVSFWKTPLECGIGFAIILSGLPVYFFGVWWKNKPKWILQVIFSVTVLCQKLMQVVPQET
T1 sequence (Q794F9 whole entry partner): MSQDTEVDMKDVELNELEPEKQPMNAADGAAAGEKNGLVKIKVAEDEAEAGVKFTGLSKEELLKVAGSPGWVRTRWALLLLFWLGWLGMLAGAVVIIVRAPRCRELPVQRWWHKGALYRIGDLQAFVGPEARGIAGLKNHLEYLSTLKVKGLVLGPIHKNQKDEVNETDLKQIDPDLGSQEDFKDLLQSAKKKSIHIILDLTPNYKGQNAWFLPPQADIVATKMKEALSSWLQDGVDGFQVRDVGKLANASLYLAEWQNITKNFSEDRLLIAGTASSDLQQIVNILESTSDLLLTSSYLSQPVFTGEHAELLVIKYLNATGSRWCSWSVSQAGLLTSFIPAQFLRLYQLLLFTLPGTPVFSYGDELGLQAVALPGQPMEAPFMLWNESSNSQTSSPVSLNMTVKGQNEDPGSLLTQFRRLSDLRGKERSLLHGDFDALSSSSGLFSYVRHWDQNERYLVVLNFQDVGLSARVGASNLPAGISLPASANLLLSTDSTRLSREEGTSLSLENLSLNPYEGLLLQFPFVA

NC(Cc1ccc(-c2ccc(CN3CCN(c4ccc(F)cc4)CC3)cc2)cc1)C(=O)O (stereo not drawn) [Compound 120]
Comparison with the Binding of Phenylalanine (10^−4 M): 0 (X < 0 Rank 0)
Comparison with the Binding of Phenylalanine (10^−5 M): 1 (0 < X < 10 Rank 1)
Comparison with the Binding of Phenylalanine (10^−6 M): 1 (0 < X < 10 Rank 1)

NC(=O)C(N)Cc1cccc(CSc2nnnn2-c2ccccc2)c1 (stereo not drawn) [Compound 9]
Comparison with the Binding of Phenylalanine (10^−4 M): 0 (X < 0 Rank 0)
Comparison with the Binding of Phenylalanine (10^−5 M): 1 (0 < X < 10 Rank 1)
Comparison with the Binding of Phenylalanine (10^−6 M): 0 (X < 0 Rank 0)

NC(Cc1cccc(CSc2nc3ccccc3c(=O)[nH]2)n1)C(=O)O (stereo not drawn) [Compound 125]
Comparison with the Binding of Phenylalanine (10^−4 M): 0 (X < 0 Rank 0)
Comparison with the Binding of Phenylalanine (10^−5 M): 1 (0 < X < 10 Rank 1)
Comparison with the Binding of Phenylalanine (10^−6 M): 2 (10 < X < 20 Rank 2)

O=C(Nc1ccc(-c2ccccc2)cc1)NC(Cc1cccc(CSc2ncc[nH]2)c1)C(=O)O (stereo not drawn) [Compound 52]
Comparison with the Binding of Phenylalanine (10^−4 M): 0 (X < 0 Rank 0)
Comparison with the Binding of Phenylalanine (10^−5 M): 0 (X < 0 Rank 0)
Comparison with the Binding of Phenylalanine (10^−6 M): 1 (0 < X < 10 Rank 1)

NC(Cc1cccc(CN2CCN(c3ccc(F)cc3)CC2)c1)C(=O)O (stereo not drawn) [Compound 75]
Comparison with the Binding of Phenylalanine (10^−4 M): 0 (X < 0 Rank 0)
Comparison with the Binding of Phenylalanine (10^−5 M): 0 (X < 0 Rank 0)
Comparison with the Binding of Phenylalanine (10^−6 M): 1 (0 < X < 10 Rank 1)

Nc1ccnc(SCc2cccc(CC(N)C(=O)O)n2)n1 (stereo not drawn) [Compound 38]
Comparison with the Binding of Phenylalanine (10^−4 M): 2 (10 < X < 20 Rank 2)
Comparison with the Binding of Phenylalanine (10^−5 M): 3 (X > 20 Rank 3)
Comparison with the Binding of Phenylalanine (10^−6 M): 3 (X > 20 Rank 3)

NC(Cc1cccc(CSc2ccc3ccccc3n2)c1)C(=O)O (stereo not drawn) [Compound 114]
Comparison with the Binding of Phenylalanine (10^−4 M): 0 (X < 0 Rank 0)
Comparison with the Binding of Phenylalanine (10^−5 M): 0 (X < 0 Rank 0)
Comparison with the Binding of Phenylalanine (10^−6 M): 2 (10 < X < 20 Rank 2)

NC(Cc1cccc(CN2CCN(c3cccc(Cl)c3)CC2)c1)C(=O)O (stereo not drawn) [Compound 71]
Comparison with the Binding of Phenylalanine (10^−4 M): 0 (X < 0 Rank 0)
Comparison with the Binding of Phenylalanine (10^−5 M): 0 (X < 0 Rank 0)
Comparison with the Binding of Phenylalanine (10^−6 M): 1 (0 < X < 10 Rank 1)

N[C@@H](Cc1cccc(CSc2nc3ccccc3[nH]2)c1)C(=O)O [drawing 469]
Status of Binding: 1 (1: −10 > Δ > −50%, lower binding affinity than phenylalanine)

Cc1ccnc(SCc2ccc(-c3ccc(CC(N)C(=O)O)cc3)cc2)n1 (stereo not drawn) [Compound 151]
Comparison with the Binding of Phenylalanine (10^−4 M): 0 (X < 0 Rank 0)
Comparison with the Binding of Phenylalanine (10^−5 M): 0 (X < 0 Rank 0)
Comparison with the Binding of Phenylalanine (10^−6 M): 2 (10 < X < 20 Rank 2)

NC(Cc1ccc(-c2ccc(CSc3nc4ccccc4c(=O)[nH]3)cc2)cc1)C(=O)O (stereo not drawn) [Compound 155]
Comparison with the Binding of Phenylalanine (10^−4 M): 0 (X < 0 Rank 0)
Comparison with the Binding of Phenylalanine (10^−5 M): 0 (X < 0 Rank 0)
Comparison with the Binding of Phenylalanine (10^−6 M): 2 (10 < X < 20 Rank 2)

N[C@@H](Cc1cccc(C[S+]([O-])c2nnnn2-c2ccccc2)n1)C(=O)O (stereo partly drawn) [drawing 479]
Status of Binding: 1 (1: −10 > Δ > −50%, lower binding affinity than phenylalanine)

NC(Cc1cccc(CN2CC=CCC2)n1)C(=O)O (stereo not drawn) [Compound 160]
Comparison with the Binding of Phenylalanine (10^−4 M): 0 (X < 0 Rank 0)
Comparison with the Binding of Phenylalanine (10^−5 M): 0 (X < 0 Rank 0)
Comparison with the Binding of Phenylalanine (10^−6 M): 1 (0 < X < 10 Rank 1)

NC(Cc1cccc(CSc2nccc(C(F)(F)F)n2)n1)C(=O)O (stereo not drawn) [Compound 21]
Comparison with the Binding of Phenylalanine (10^−4 M): 0 (X < 0 Rank 0)
Comparison with the Binding of Phenylalanine (10^−5 M): 2 (10 < X < 20 Rank 2)
Comparison with the Binding of Phenylalanine (10^−6 M): 1 (0 < X < 10 Rank 1)

NC(Cc1cccc(CSc2nc(-c3ccccc3)c(-c3ccccc3)[nH]2)n1)C(=O)O (stereo not drawn) [Compound 148]
Comparison with the Binding of Phenylalanine (10^−4 M): 0 (X < 0 Rank 0)
Comparison with the Binding of Phenylalanine (10^−5 M): 0 (X < 0 Rank 0)
Comparison with the Binding of Phenylalanine (10^−6 M): 2 (10 < X < 20 Rank 2)

NC(Cc1cccc(CSc2cncc3c(C(F)(F)F)cccc23)n1)C(=O)O (stereo not drawn) [Compound 24]
Comparison with the Binding of Phenylalanine (10^−4 M): 0 (X < 0 Rank 0)
Comparison with the Binding of Phenylalanine (10^−5 M): 0 (X < 0 Rank 0)
Comparison with the Binding of Phenylalanine (10^−6 M): 3 (X > 20 Rank 3)

N[C@@H](Cc1cccc(CSc2nnc(-c3ccncc3)[nH]2)c1)C(=O)O [drawing 486]
Status of Binding: 2 (2: 10% ≧ Δ ≧ −10% similar binding affinity to phenylalanine)

O=C(Nc1ccc(-c2ccccc2)cc1)NC(Cc1cccc(CSc2cncc3c(C(F)(F)F)cccc23)n1)C(=O)O (stereo not drawn) [Compound 61]
Comparison with the Binding of Phenylalanine (10^−4 M): 2 (10 < X < 20 Rank 2)
Comparison with the Binding of Phenylalanine (10^−5 M): 0 (X < 0 Rank 0)
Comparison with the Binding of Phenylalanine (10^−6 M): 2 (10 < X < 20 Rank 2)

N[C@@H](Cc1ccccc1)C(=O)NC(Cc1cccc(CSc2cncc3c(C(F)(F)F)cccc23)n1)C(=O)O (stereo partly drawn) [Compound 26]
Comparison with the Binding of Phenylalanine (10^−4 M): 0 (X < 0 Rank 0)
Comparison with the Binding of Phenylalanine (10^−5 M): 0 (X < 0 Rank 0)
Comparison with the Binding of Phenylalanine (10^−6 M): 1 (0 < X < 10 Rank 1)

NC(=O)C(N)Cc1cccc(CSc2ncc[nH]2)c1 (stereo not drawn) [Compound 6]
Comparison with the Binding of Phenylalanine (10^−4 M): 0 (X < 0 Rank 0)
Comparison with the Binding of Phenylalanine (10^−5 M): 0 (X < 0 Rank 0)
Comparison with the Binding of Phenylalanine (10^−6 M): 3 (X > 20 Rank 3)

CCOC(=O)c1cnc(SCc2cccc(CC(N)C(=O)O)n2)[nH]c1=O (stereo not drawn) [Compound 146]
Comparison with the Binding of Phenylalanine (10^−4 M): 2 (10 < X < 20 Rank 2)
Comparison with the Binding of Phenylalanine (10^−5 M): 3 (X > 20 Rank 3)
Comparison with the Binding of Phenylalanine (10^−6 M): 3 (X > 20 Rank 3)

NC(Cc1cccc(CSc2nnc(-c3ccccc3)[nH]2)c1)C(=O)O (stereo not drawn) [Compound 13]
Comparison with the Binding of Phenylalanine (10^−4 M): 3 (X > 20 Rank 3)
Comparison with the Binding of Phenylalanine (10^−5 M): 3 (X > 20 Rank 3)
Comparison with the Binding of Phenylalanine (10^−6 M): 3 (X > 20 Rank 3)

O=C(O)C(Cc1cccc(CSc2ncnc3[nH]ncc23)n1)NS(=O)(=O)c1ccc(F)cc1 (stereo not drawn) [Compound 64]
Comparison with the Binding of Phenylalanine (10^−4 M): 0 (X < 0 Rank 0)
Comparison with the Binding of Phenylalanine (10^−5 M): 1 (0 < X < 10 Rank 1)
Comparison with the Binding of Phenylalanine (10^−6 M): 0 (X < 0 Rank 0)

NC(=O)C(Cc1cccc(CSc2nnc(-c3ccncc3)o2)c1)NC(=O)NC(c1ccccc1)c1ccccc1 (stereo not drawn) [Compound 55]
Comparison with the Binding of Phenylalanine (10^−4 M): 1 (0 < X < 10 Rank 1)
Comparison with the Binding of Phenylalanine (10^−5 M): 3 (X > 20 Rank 3)
Comparison with the Binding of Phenylalanine (10^−6 M): 2 (10 < X < 20 Rank 2)

NC(Cc1ccc(-c2ccc(CSc3nnnn3CC(=O)O)cc2)cc1)C(=O)O (stereo not drawn) [Compound 153]
Comparison with the Binding of Phenylalanine (10^−4 M): 0 (X < 0 Rank 0)
Comparison with the Binding of Phenylalanine (10^−5 M): 0 (X < 0 Rank 0)
Comparison with the Binding of Phenylalanine (10^−6 M): 2 (10 < X < 20 Rank 2)

O=C(Nc1ccc(-c2ccccc2)cc1)NC(Cc1cccc(CSc2nnc(-c3ccccc3)o2)c1)C(=O)O (stereo not drawn) [Compound 49]
Comparison with the Binding of Phenylalanine (10^−4 M): 2 (10 < X < 20 Rank 2)
Comparison with the Binding of Phenylalanine (10^−5 M): 3 (X > 20 Rank 3)
Comparison with the Binding of Phenylalanine (10^−6 M): 3 (X > 20 Rank 3)

NC(Cc1ccc(-c2ccc(CSc3nc4cc([N+](=O)[O-])ccc4[nH]3)cc2)cc1)C(=O)O (stereo not drawn) [Compound 124]
Comparison with the Binding of Phenylalanine (10^−4 M): 0 (X < 0 Rank 0)
Comparison with the Binding of Phenylalanine (10^−5 M): 1 (0 < X < 10 Rank 1)
Comparison with the Binding of Phenylalanine (10^−6 M): 1 (0 < X < 10 Rank 1)

NC(Cc1cccc(-c2cccc(N3CCN(c4cccc(Cl)c4)CC3)c2)c1)C(=O)O (stereo not drawn) [Compound 101]
Comparison with the Binding of Phenylalanine (10^−4 M): 2 (10 < X < 20 Rank 2)
Comparison with the Binding of Phenylalanine (10^−5 M): 3 (X > 20 Rank 3)
Comparison with the Binding of Phenylalanine (10^−6 M): 3 (X > 20 Rank 3)

— patent US20060167057A1, “Compounds for the treatment of CNS and amyloid associated diseases” (priority 2004, published 2006)
